# Experimental data published in US20130225508A1, “PEPTIDE CAPABLE OF BINDING TO IMMUNOGLOBULIN” (priority 2010, published 2013).
# Tested on: adjuvant-induced arthritis
# Test: Adjuvant arthritis rat model
# Format: in vivo, Lewis/CrlCrlj rats
# Set-up: key to Redness scores (left hind-limb) / Redness scores (right hind-limb): 0 = no redness, 4 = severe redness; key to Scores of swelling in the instep (left hind-limb) / Scores of swelling in the instep (right hind-limb): 0 = no swelling, 4 = severe swelling; key to Scores of swelling in knuckle joints (left hind-limb) / Scores of swelling in knuckle joints (right hind-limb): 0 = no swelling, 4 = swelling of all the digits
# Text: Male Lewis/CrlCrlj (SPF) rats were used to investigate the arthritis suppressing effect of a peptide of the present invention on adjuvant-induced arthritis. Forty-five rats were purchased from Charles River Laboratories Japan, Inc., and fed normal chow and allowed to acclimate for 7 days before used (the range of body weights was from 193.3 to 218.3 g at the beginning of use).
# In an agate motor, dead tubercle bacilli (Mycobacterium butyricum; Lot No. 0260570, Difco) were pulverized. Then, liquid paraffin was added in small amounts to spread the pulverized bacilli well, so as to allow them to be emulsified at 1.0 mg/mL. The resultant emulsion was used after verification to ensure that the pulverized bacilli had been allowed to be finely emulsified, using an NM MICRONIZER (Nippon Seiki Co., Ltd.).
# A right hind-limb of the respective rats was exposed, and 100 μL of the emulsion was intradermally injected once into a footpad of the right hind-limb using a 25G-needle attached syringe, to cause arthritis (day 0).
# Each of the groups was comprised of 5 animals.
# Arthritis was evaluated only for the hind-limbs, based on the criteria described below:
# Score 0: no swelling Score 1: swelling of not more than two digits Score 2: swelling of three digits Score 3: swelling of four digits Score 4: swelling of all the digits
# Score 0: no swelling Score 1: mild swelling Score 2: modest swelling Score 3: rather severe swelling Score 4: severe swelling
# Score 0: no redness Score 1: mild redness Score 2: modest redness Score 3: rather severe redness Score 4: severe redness (iii) Measurement of Foot Volumes of Left And Right Hind-Limbs
# Measurement was performed using a plethysmometer (UNICOM TK105). The increasing rate foot volume (percentage of paw swelling, paw swelling %) was calculated by the following formula:
# Percent paw swelling (%)=[(Vt−Vo)/Vo]×100
# In addition, in these examinations, the percent change of edema relative to day 10 post-adjuvant was calculated, in order to assess the effect of treatment with the test substances.
# Data are expressed by mean±standard error. Since the uniformity of variance was not verified in testing between the negative and the positive control groups, testing for significant difference was performed by Aspin-Welch t-test. Since the uniformity of variance was not verified in testing for significant differences of the respective test-substance administered groups relative to the positive control group, assessment was performed by Dunnett's multiple comparison test after Kruskal-Wallis testing, using non-parametric procedures. Differences were considered to be statistically significant at p values of less than 0.05.
# [1] = Day 0 post-adjuvant, 0.15 mg/kg oral from day 10
# [2] = Day 0 post-adjuvant, 0.15 mg/kg oral, pre-administered group
# [3] = Day 3 post-adjuvant, 0.15 mg/kg oral from day 10
# [4] = Day 3 post-adjuvant, 0.15 mg/kg oral, pre-administered group
# [5] = Day 7 post-adjuvant, 0.15 mg/kg oral from day 10
# [6] = Day 7 post-adjuvant, 0.15 mg/kg oral, pre-administered group
# [7] = Day 10 post-adjuvant, 0.15 mg/kg oral from day 10
# [8] = Day 10 post-adjuvant, 0.15 mg/kg oral, pre-administered group
# [9] = Day 14 post-adjuvant, 0.15 mg/kg oral from day 10
# [10] = Day 14 post-adjuvant, 0.15 mg/kg oral, pre-administered group
# [11] = Day 17 post-adjuvant, 0.15 mg/kg oral from day 10
# [12] = Day 17 post-adjuvant, 0.15 mg/kg oral, pre-administered group
# [13] = Day 21 post-adjuvant, 0.15 mg/kg oral from day 10
# [14] = Day 21 post-adjuvant, 0.15 mg/kg oral, pre-administered group
compound,measurement,setting,value
CN(Cc1cnc2nc(N)nc(N)c2n1)c1ccc(C(=O)N[C@@H](CCC(=O)O)C(=O)O)cc1 [Methotrexate],Redness scores (left hind-limb),[1],0.0 ± 0.0
same,Redness scores (right hind-limb),[1],0.0 ± 0.0
same,Scores of swelling in knuckle joints (left hind-limb),[1],0.0 ± 0.0
same,Scores of swelling in knuckle joints (right hind-limb),[1],0.0 ± 0.0
same,Scores of swelling in the instep (left hind-limb),[1],0.0 ± 0.0
same,Scores of swelling in the instep (right hind-limb),[1],0.0 ± 0.0
same,Total scores (left hind-limb),[1],0.0 ± 0.0
same,Total scores (right hind-limb),[1],0.0 ± 0.0
same,Redness scores (left hind-limb),[2],0.0 ± 0.0
same,Redness scores (right hind-limb),[2],0.0 ± 0.0
same,Scores of swelling in knuckle joints (left hind-limb),[2],0.0 ± 0.0
same,Scores of swelling in knuckle joints (right hind-limb),[2],0.0 ± 0.0
same,Scores of swelling in the instep (left hind-limb),[2],0.0 ± 0.0
same,Scores of swelling in the instep (right hind-limb),[2],0.0 ± 0.0
same,Total scores (left hind-limb),[2],0.0 ± 0.0
same,Total scores (right hind-limb),[2],0.0 ± 0.0
same,Redness scores (left hind-limb),[3],0.0 ± 0.0
same,Redness scores (right hind-limb),[3],0.0 ± 0.0
same,Scores of swelling in knuckle joints (left hind-limb),[3],0.0 ± 0.0
same,Scores of swelling in knuckle joints (right hind-limb),[3],0.0 ± 0.0
same,Scores of swelling in the instep (left hind-limb),[3],0.0 ± 0.0
same,Scores of swelling in the instep (right hind-limb),[3],0.0 ± 0.0
same,Total scores (left hind-limb),[3],0.0 ± 0.0
same,Total scores (right hind-limb),[3],0.0 ± 0.0
same,Redness scores (left hind-limb),[4],0.0 ± 0.0
same,Redness scores (right hind-limb),[4],0.0 ± 0.0
same,Scores of swelling in knuckle joints (left hind-limb),[4],0.0 ± 0.0
same,Scores of swelling in knuckle joints (right hind-limb),[4],0.0 ± 0.0
same,Scores of swelling in the instep (left hind-limb),[4],0.0 ± 0.0
same,Scores of swelling in the instep (right hind-limb),[4],0.0 ± 0.0
same,Total scores (left hind-limb),[4],0.0 ± 0.0
same,Total scores (right hind-limb),[4],0.0 ± 0.0
same,Redness scores (left hind-limb),[5],0.0 ± 0.0
same,Redness scores (right hind-limb),[5],0.4 ± 0.2
same,Scores of swelling in knuckle joints (left hind-limb),[5],0.4 ± 0.2
same,Scores of swelling in knuckle joints (right hind-limb),[5],0.6 ± 0.2
same,Scores of swelling in the instep (left hind-limb),[5],0.0 ± 0.0
same,Scores of swelling in the instep (right hind-limb),[5],1.2 ± 0.2
same,Total scores (left hind-limb),[5],0.4 ± 0.5
same,Total scores (right hind-limb),[5],2.2 ± 0.8
same,Redness scores (left hind-limb),[6],0.0 ± 0.0
same,Redness scores (right hind-limb),[6],0.2 ± 0.2
same,Scores of swelling in knuckle joints (left hind-limb),[6],0.0 ± 0.0
same,Scores of swelling in knuckle joints (right hind-limb),[6],0.4 ± 0.2
same,Scores of swelling in the instep (left hind-limb),[6],0.0 ± 0.0
same,Scores of swelling in the instep (right hind-limb),[6],0.0 ± 0.0
same,Total scores (left hind-limb),[6],0.0 ± 0.0
same,Total scores (right hind-limb),[6],0.6 ± 0.4
same,Redness scores (left hind-limb),[7],0.4 ± 0.2
same,Redness scores (right hind-limb),[7],1.4 ± 0.4
same,Scores of swelling in knuckle joints (left hind-limb),[7],0.6 ± 0.2
same,Scores of swelling in knuckle joints (right hind-limb),[7],1.6 ± 0.4
same,Scores of swelling in the instep (left hind-limb),[7],0.6 ± 0.2
same,Scores of swelling in the instep (right hind-limb),[7],1.4 ± 0.4
same,Total scores (left hind-limb),[7],1.6 ± 0.5
same,Total scores (right hind-limb),[7],4.4 ± 1.5
same,Redness scores (left hind-limb),[8],0.0 ± 0.0
same,Redness scores (right hind-limb),[8],0.0 ± 0.0
same,Scores of swelling in knuckle joints (left hind-limb),[8],0.2 ± 0.2
same,Scores of swelling in knuckle joints (right hind-limb),[8],0.2 ± 0.2
same,Scores of swelling in the instep (left hind-limb),[8],0.0 ± 0.0
same,Scores of swelling in the instep (right hind-limb),[8],0.4 ± 0.2
same,Total scores (left hind-limb),[8],0.2 ± 0.2
same,Total scores (right hind-limb),[8],0.6 ± 0.4
same,Redness scores (left hind-limb),[9],0.2 ± 0.2
same,Redness scores (right hind-limb),[9],1.0 ± 0.3
same,Scores of swelling in knuckle joints (left hind-limb),[9],0.8 ± 0.2
same,Scores of swelling in knuckle joints (right hind-limb),[9],1.2 ± 0.2
same,Scores of swelling in the instep (left hind-limb),[9],0.2 ± 0.2
same,Scores of swelling in the instep (right hind-limb),[9],1.4 ± 0.4
same,Total scores (left hind-limb),[9],1.2 ± 0.6
same,Total scores (right hind-limb),[9],3.6 ± 1.1
same,Redness scores (left hind-limb),[10],0.0 ± 0.0
same,Redness scores (right hind-limb),[10],0.2 ± 0.2
same,Scores of swelling in knuckle joints (left hind-limb),[10],0.4 ± 0.2
same,Scores of swelling in knuckle joints (right hind-limb),[10],0.8 ± 0.2
same,Scores of swelling in the instep (left hind-limb),[10],0.0 ± 0.0
same,Scores of swelling in the instep (right hind-limb),[10],0.8 ± 0.2
same,Total scores (left hind-limb),[10],0.4 ± 0.2
same,Total scores (right hind-limb),[10],1.8 ± 0.2
same,Redness scores (left hind-limb),[11],0.6 ± 0.4
same,Redness scores (right hind-limb),[11],1.2 ± 0.2
same,Scores of swelling in knuckle joints (left hind-limb),[11],0.4 ± 0.2
same,Scores of swelling in knuckle joints (right hind-limb),[11],0.6 ± 0.2
same,Scores of swelling in the instep (left hind-limb),[11],0.8 ± 0.6
same,Scores of swelling in the instep (right hind-limb),[11],2.0 ± 0.4
same,Total scores (left hind-limb),[11],1.8 ± 1.4
same,Total scores (right hind-limb),[11],3.8 ± 0.9
same,Redness scores (left hind-limb),[12],0.4 ± 0.4
same,Redness scores (right hind-limb),[12],0.8 ± 0.4
same,Scores of swelling in knuckle joints (left hind-limb),[12],0.6 ± 0.2
same,Scores of swelling in knuckle joints (right hind-limb),[12],1.0 ± 0.3
same,Scores of swelling in the instep (left hind-limb),[12],0.4 ± 0.2
same,Scores of swelling in the instep (right hind-limb),[12],1.4 ± 0.2
same,Total scores (left hind-limb),[12],1.4 ± 0.7
same,Total scores (right hind-limb),[12],3.2 ± 0.8
same,Redness scores (left hind-limb),[13],0.6 ± 0.6
same,Redness scores (right hind-limb),[13],1.2 ± 0.5
same,Scores of swelling in knuckle joints (left hind-limb),[13],0.6 ± 0.6
same,Scores of swelling in knuckle joints (right hind-limb),[13],0.8 ± 0.6
same,Scores of swelling in the instep (left hind-limb),[13],0.6 ± 0.6
same,Scores of swelling in the instep (right hind-limb),[13],2.2 ± 0.6
same,Total scores (left hind-limb),[13],1.8 ± 2.3
same,Total scores (right hind-limb),[13],4.2 ± 2.0
same,Redness scores (left hind-limb),[14],0.2 ± 0.2
same,Redness scores (right hind-limb),[14],0.8 ± 0.2
same,Scores of swelling in knuckle joints (left hind-limb),[14],0.4 ± 0.2
same,Scores of swelling in knuckle joints (right hind-limb),[14],0.8 ± 0.2
same,Scores of swelling in the instep (left hind-limb),[14],0.2 ± 0.2
same,Scores of swelling in the instep (right hind-limb),[14],1.2 ± 0.4
same,Total scores (left hind-limb),[14],0.8 ± 0.6
same,Total scores (right hind-limb),[14],2.8 ± 0.6
